Assay in all cases: relative viability (nuclei count vs DMSO), 5 days (fraction); higher = more cells survive
Compound in the assay “Etoposide + Luminespib”: COc1cc([C@@H]2c3cc4c(cc3[C@@H](O[C@@H]3O[C@@H]5CO[C@@H](C)O[C@H]5[C@H](O)[C@H]3O)[C@H]3COC(=O)[C@H]23)OCO4)cc(OC)c1O [Etoposide] + CCNC(=O)c1noc(-c2cc(C(C)C)c(O)cc2O)c1-c1ccc(CN2CCOCC2)cc1 [Luminespib] (partner 0.01 µM)
Put shortly: (§1)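 Medians of duplicate plates are given as relative viability. That measure is the nuclei count in treated wells divided by the count in vehicle wells. Counts were taken on 4× images of lung cancer cell lines in 1536-well plates, 5 days after pin-tool dosing the day after seeding with one drug alone or a fixed anchor-drug dose plus five library-drug doses (not always all listed) in √10 steps.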

Compound in the assay “Bleomycin + Crizotinib”: CC1=C(N=C(N=C1N)[C@H](CC(=O)N)NC[C@@H](C(=O)N)N)C(=O)N[C@@H]([C@H](C2=CN=CN2)OC3C(C(C(C(O3)CO)O)O)OC4C(C(C(C(O4)CO)O)OC(=O)N)O)C(=O)N[C@H](C)[C@H]([C@H](C)C(=O)N[C@@H]([C@@H](C)O)C(=O)NCCC5=NC(=CS5)C6=NC(=CS6)C(=O)NCCC[S+](C)C)O [Bleomycin] + C[C@@H](Oc1cc(-c2cnn(C3CCNCC3)c2)cnc1N)c1c(Cl)ccc(F)c1Cl [Crizotinib] (partner 1 µM)
Particulars: main component drawn. A digest of the protocol: as §1

Compound in the assay “Bleomycin + Dasatinib”: CC1=C(N=C(N=C1N)[C@H](CC(=O)N)NC[C@@H](C(=O)N)N)C(=O)N[C@@H]([C@H](C2=CN=CN2)OC3C(C(C(C(O3)CO)O)O)OC4C(C(C(C(O4)CO)O)OC(=O)N)O)C(=O)N[C@H](C)[C@H]([C@H](C)C(=O)N[C@@H]([C@@H](C)O)C(=O)NCCC5=NC(=CS5)C6=NC(=CS6)C(=O)NCCC[S+](C)C)O [Bleomycin] + Cc1nc(Nc2ncc(C(=O)Nc3c(C)cccc3Cl)s2)cc(N2CCN(CCO)CC2)n1 [Dasatinib] (partner 0.075 µM)
To be noted: main component drawn. Put shortly: as §1

Compound in the assay “Bleomycin + Pemetrexed”: CC1=C(N=C(N=C1N)[C@H](CC(=O)N)NC[C@@H](C(=O)N)N)C(=O)N[C@@H]([C@H](C2=CN=CN2)OC3C(C(C(C(O3)CO)O)O)OC4C(C(C(C(O4)CO)O)OC(=O)N)O)C(=O)N[C@H](C)[C@H]([C@H](C)C(=O)N[C@@H]([C@@H](C)O)C(=O)NCCC5=NC(=CS5)C6=NC(=CS6)C(=O)NCCC[S+](C)C)O [Bleomycin] + Nc1nc2[nH]cc(CCc3ccc(C(=O)N[C@@H](CCC(=O)O)C(=O)O)cc3)c2c(=O)[nH]1 [Pemetrexed] (partner 0.2 µM)
Particulars: main component drawn. Put shortly:
as §1

Experimental findings from the supplement of paper PMC10307832 are described below.

For UMC-11, the relative viability with Etoposide + Luminespib (first compound 0.01 µM) was 1; with Etoposide + Luminespib (first compound 0.03162 µM), 1.09; in the assay with Etoposide + Luminespib (first compound 0.1 µM) it was 0.783; with Etoposide + Luminespib (first compound 0.3162 µM), 0.566; in the assay with Etoposide + Luminespib (first compound 1 µM), 0.279; in the assay with Bleomycin + Crizotinib (first compound 0.01 µM), 0.528. For the same cell line, the relative viability was 0.571 with Bleomycin + Crizotinib (first compound 0.03162 µM); 0.419 with Bleomycin + Crizotinib (first compound 0.1 µM); 0.326 in the assay with Bleomycin + Crizotinib (first compound 0.3162 µM); 0.252 with Bleomycin + Crizotinib (first compound 1 µM); 0.448 with Bleomycin + Dasatinib (first compound 0.01 µM); 0.511 with Bleomycin + Dasatinib (first compound 0.03162 µM). The relative viability worked out at 0.495 with Bleomycin + Dasatinib (first compound 0.1 µM); 0.385 with Bleomycin + Dasatinib (first compound 0.3162 µM); 0.328 in the assay with Bleomycin + Dasatinib (first compound 1 µM); 0.74 with Bleomycin + Pemetrexed (first compound 0.01 µM); 0.756 with Bleomycin + Pemetrexed (first compound 0.03162 µM); 0.74 in the assay with Bleomycin + Pemetrexed (first compound 0.1 µM). In addition, the relative viability was found to be 0.598 with Bleomycin + Pemetrexed (first compound 0.3162 µM) and 0.414 with Bleomycin + Pemetrexed (first compound 1 µM).
